{"source": "paper PMC9017349", "about": "“Spiropyrimidinetriones: a Class of DNA Gyrase Inhibitors with Activity against Mycobacterium tuberculosis and without Cross-Resistance to Fluoroquinolones” (Antimicrobial Agents and Chemotherapy, 2022)", "key": {"[1]": {"system": "M. tuberculosis expressing DsRed in murine RAW 264.7 cells", "assay": "microbe, parasite or virus in culture", "type": "cell-based", "conditions": "for IC50: RAW 264.7, 72 h exposure, read-out: IC50, intracellular M. tuberculosis in murine macrophages"}, "[2]": {"assay": "in vivo", "conditions": "male, mouse"}, "[3]": {"assay": "in vitro", "conditions": "human, plasma", "description": "(§1) Aiming to identify a compound to progress to in vivo efficacy studies, compounds were profiled for physicochemical properties, PK, and safety."}, "[4]": {"system": "M. tuberculosis H37Rv", "assay": "MIC against M. tuberculosis H37Rv in 7H9 medium with various supplements", "type": "cell-based, Mycobacterium tuberculosis", "conditions": "for MIC: Mycobacterium tuberculosis, H37RV"}, "[5]": {"system": "M. tuberculosis H37Rv", "assay": "microbe, parasite or virus in culture", "type": "cell-based", "conditions": "Mycobacterium tuberculosis, read-out: MIC90, H37Rv"}, "[6]": {"system": "N. gonorrhoeae", "conditions": "cited from earlier work"}, "[7]": {"system": "mouse lymphoma assay (micronucleation aberrations)", "conditions": "highest concentration tested; cited from earlier work"}, "[8]": {"system": "murine RAW 264.7 cells", "type": "cell-based", "conditions": "highest concentration tested"}, "[9]": {"system": "replicating M. tuberculosis H37Rv", "type": "cell-based", "conditions": "1× MIC"}, "[10]": {"system": "iniB promoter reporter in M. tuberculosis H37Rv", "type": "cell-based, Mycobacterium tuberculosis"}, "[11]": {"system": "S. aureus", "conditions": "cited from earlier work"}, "[12]": {"system": "M. tuberculosis Erdman", "assay": "microbe, parasite or virus in culture", "type": "cell-based", "conditions": "Mycobacterium tuberculosis, read-out: MIC against the Erdman strain with 4% human serum albumin, 7H9 medium-ADC-glycerol plus 4% human serum albumin"}, "[13]": {"system": "M. tuberculosis H37Rv", "assay": "microbe, parasite or virus in culture", "type": "cell-based", "conditions": "Mycobacterium tuberculosis, 168 h"}, "[14]": {"system": "M. tuberculosis Erdman pFCA-LuxAB (Erdman Lux)", "conditions": "BALB/c mice, 300 mg/kg p.o. daily, 12 days"}, "[15]": {"system": "recA promoter reporter in M. tuberculosis H37Rv", "type": "cell-based, Mycobacterium tuberculosis"}, "[16]": {"target": "M. tuberculosis DNA gyrase (Mycobacterium tuberculosis, UniProt P9WG45+P9WG47)", "sequence (P9WG45 whole entry)": "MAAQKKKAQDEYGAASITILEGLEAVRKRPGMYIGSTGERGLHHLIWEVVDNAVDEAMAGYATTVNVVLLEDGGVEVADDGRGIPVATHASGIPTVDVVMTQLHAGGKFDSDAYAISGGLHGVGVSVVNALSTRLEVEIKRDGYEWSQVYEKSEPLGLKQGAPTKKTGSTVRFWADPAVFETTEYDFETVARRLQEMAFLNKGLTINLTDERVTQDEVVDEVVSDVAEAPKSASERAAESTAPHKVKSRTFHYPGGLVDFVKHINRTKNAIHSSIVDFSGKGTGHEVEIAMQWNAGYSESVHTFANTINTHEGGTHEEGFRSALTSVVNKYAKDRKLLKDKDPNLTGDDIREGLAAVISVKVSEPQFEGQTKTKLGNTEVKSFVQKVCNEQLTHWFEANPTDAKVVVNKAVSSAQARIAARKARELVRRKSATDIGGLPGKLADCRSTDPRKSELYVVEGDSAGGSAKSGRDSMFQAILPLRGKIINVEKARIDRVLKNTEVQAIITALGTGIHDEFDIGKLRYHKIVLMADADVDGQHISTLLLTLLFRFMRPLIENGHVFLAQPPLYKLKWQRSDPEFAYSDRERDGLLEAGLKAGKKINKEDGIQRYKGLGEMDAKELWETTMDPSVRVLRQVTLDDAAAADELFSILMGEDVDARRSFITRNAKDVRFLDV", "sequence (P9WG47 whole entry)": "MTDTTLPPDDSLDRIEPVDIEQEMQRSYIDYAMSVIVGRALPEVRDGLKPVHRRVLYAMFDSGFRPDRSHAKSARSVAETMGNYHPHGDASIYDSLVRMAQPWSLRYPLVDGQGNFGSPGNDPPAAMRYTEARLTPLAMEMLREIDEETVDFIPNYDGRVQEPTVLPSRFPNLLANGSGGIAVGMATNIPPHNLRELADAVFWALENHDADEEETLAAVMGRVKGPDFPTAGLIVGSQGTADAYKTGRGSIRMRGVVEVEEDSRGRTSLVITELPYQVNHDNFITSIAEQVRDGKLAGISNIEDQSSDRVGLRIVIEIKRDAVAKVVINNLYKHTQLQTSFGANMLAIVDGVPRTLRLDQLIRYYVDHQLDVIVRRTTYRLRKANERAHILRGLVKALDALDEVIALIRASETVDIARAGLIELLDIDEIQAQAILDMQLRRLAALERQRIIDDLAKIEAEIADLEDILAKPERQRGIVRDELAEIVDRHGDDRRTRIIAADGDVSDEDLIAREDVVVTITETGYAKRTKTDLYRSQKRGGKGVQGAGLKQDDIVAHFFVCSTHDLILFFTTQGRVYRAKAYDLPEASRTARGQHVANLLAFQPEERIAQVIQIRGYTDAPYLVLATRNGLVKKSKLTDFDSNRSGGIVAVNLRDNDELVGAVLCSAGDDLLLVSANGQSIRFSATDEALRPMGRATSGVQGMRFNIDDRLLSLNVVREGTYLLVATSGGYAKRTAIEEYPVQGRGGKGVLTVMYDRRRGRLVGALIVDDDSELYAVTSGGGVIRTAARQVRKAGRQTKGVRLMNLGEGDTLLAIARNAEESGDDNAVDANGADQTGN", "assay": "biochemical", "conditions": "read-out: IC50, DNA gyrase supercoiling"}, "[17]": {"system": "H37Rv (RecA)", "type": "cell-based, Mycobacterium tuberculosis"}, "[18]": {"system": "S. pneumoniae", "conditions": "cited from earlier work"}, "[19]": {"assay": "in vivo", "conditions": "BALB/c, mouse, 300 mg/kg"}, "[20]": {"conditions": "for Average Conc. Found in plasma: infected BALB/c mice"}, "[21]": {"assay": "physchem", "conditions": "pH 6.5", "description": "as §1"}, "[22]": {"assay": "in vitro", "conditions": "mouse, plasma"}}, "note": "Values joined by “and” are separate entries in the source; they are usually repeats but may differ in a detail not shown here. Equal entries are not always repeated. Where two headings read alike, the source gives them in different places."}
{"smiles": "Cc1nnc(-c2noc3c(F)c4c(cc23)CC2(C(=O)NC(=O)NC2=O)[C@H]2[C@H](C)O[C@H](C)CN42)o1", "note": "[Compound 22]", "values": [{"measurement": "macrophage IC50 higher than the average in vitro broth MIC", "setting": "[1]", "value": "less than 3 fold"}, {"measurement": "IC50", "setting": "[1]; Mycobacterium tuberculosis, RAW264.7, 72 h", "value": 6.3, "unit": "µM"}, {"measurement": "IC50", "setting": "[1]", "value": 6, "unit": "µM"}, {"measurement": "AUC(0-inf)", "setting": "[2]; iv, 2 mg/kg", "value": 2.37, "unit": "µg·h/mL"}, {"measurement": "Vd", "setting": "[2]; iv, 2 mg/kg", "value": 5.1, "unit": "L/kg"}, {"measurement": "clearance", "setting": "[2]; iv, 2 mg/kg", "value": 14.3, "unit": "mL/min/kg"}, {"measurement": "half-life", "setting": "[2]; iv, 2 mg/kg", "value": 3.7, "unit": "h"}, {"measurement": "AUC(0-inf)", "setting": "[2]; po, 20 mg/kg", "value": 24.6, "unit": "µg·h/mL"}, {"measurement": "Cmax", "setting": "[2]; po, 20 mg/kg", "value": 9.5, "unit": "µg/mL"}, {"measurement": "Tmax", "setting": "[2]; po, 20 mg/kg", "value": 1, "unit": "h"}, {"measurement": "bioavailability", "setting": "[2]; po, 20 mg/kg", "value": 104, "unit": "%"}, {"measurement": "AUC(0-inf)", "setting": "[2]; po, 100 mg/kg", "value": 343, "unit": "µg·h/mL"}, {"measurement": "Cmax", "setting": "[2]; po, 100 mg/kg", "value": 47, "unit": "µg/mL"}, {"measurement": "Tmax", "setting": "[2]; po, 100 mg/kg", "value": 2.8, "unit": "h"}, {"measurement": "AUC(0-inf)", "setting": "[2]; po, 300 mg/kg", "value": 1270, "unit": "µg·h/mL"}, {"measurement": "Cmax", "setting": "[2]; po, 300 mg/kg", "value": 133, "unit": "µg/mL"}, {"measurement": "Tmax", "setting": "[2]; po, 300 mg/kg", "value": 1, "unit": "h"}, {"measurement": "AUC(0-inf)", "setting": "[2]; po, 500 mg/kg", "value": 1440, "unit": "µg·h/mL"}, {"measurement": "Cmax", "setting": "[2]; po, 500 mg/kg", "value": 117, "unit": "µg/mL"}, {"measurement": "Tmax", "setting": "[2]; po, 500 mg/kg", "value": 0.83, "unit": "h"}, {"measurement": "fraction unbound", "setting": "[3]", "value": 0.15}, {"measurement": "antibacterial activity in culture lower than moxifloxacin", "setting": "[4]", "value": 8, "unit": "fold"}, {"measurement": "MIC", "setting": "[4]; read-out: MIC, ADC/GLU/TW", "value": 1.7, "unit": "µM"}, {"measurement": "MIC", "setting": "[4]; read-out: MIC, DPPC/CAS/TX", "value": 5.2, "unit": "µM"}, {"measurement": "MIC", "setting": "[4]; read-out: MIC, DPPC/Chol/BSA/TX", "value": 2.9, "unit": "µM"}, {"measurement": "MIC", "setting": "[4]; read-out: MIC, GLU/BSA/TX", "value": 3, "unit": "µM"}, {"measurement": "MIC", "setting": "[4]; read-out: MIC, GLU/CAS/TX", "value": 2.6, "unit": "µM"}, {"measurement": "MIC90", "setting": "[5]", "value": 1, "unit": "µM"}, {"measurement": "MIC against N. gonorrhoeae", "setting": "[6]", "value": 2.0, "unit": "µM"}, {"measurement": "genotoxicity in the MLA", "setting": "[7]", "value": "no genotoxicity at the highest concentration tested"}, {"measurement": "toxicity against the macrophage cell line", "setting": "[8]", "value": "> 100", "unit": "µM"}, {"measurement": "time to 3-log kill", "setting": "[9]", "value": 7, "unit": "days"}, {"measurement": "bioluminescence response in PiniB-LUX assay", "setting": "[10]", "value": "none of the DNA gyrase inhibitors, including 22, elicited a strong bioluminescence response"}, {"measurement": "MIC against S. aureus", "setting": "[11]", "value": 0.5, "unit": "µM"}, {"measurement": "MIC", "setting": "[12]", "value": 16, "unit": "µM"}, {"measurement": "MIC", "setting": "[13]; H37Rv, 7 days, Middlebrook 7H9 with OADC and glycerol, read-out: MIC (dose-response)", "value": 7.26, "unit": "µM"}, {"measurement": "MBC", "setting": "[13]; H37RV, CARA, transfer to charcoal agar, additional 7 days", "value": 15.6, "unit": "µM"}, {"measurement": "tolerability", "setting": "[14]", "value": "generally well tolerated"}, {"measurement": "concentration of maximal effect in PrecA-LUX assay", "setting": "[15]; at 7 days", "value": 0.4, "unit": "µM"}, {"measurement": "bioluminescence response in PrecA-LUX assay", "setting": "[15]; over 7 days", "value": "strong bioluminescence signal"}, {"measurement": "IC50", "setting": "[16]", "value": 2, "unit": "µM"}, {"measurement": "PrecA-LUX MIC", "setting": "[17]", "value": "~ 3.9 μM"}, {"measurement": "MIC against S. pneumoniae", "setting": "[18]", "value": 0.25, "unit": "µM"}, {"measurement": "Cmax", "setting": "[19]", "value": "165 ± 58", "unit": "µg/mL"}, {"measurement": "Found Concentration in plasma, single mice", "setting": "[20]; infected BALB/c mice A, B, C, 300 mg/kg QD, 1 hr post dose, 300 mg/kg", "value": "229000 ng/mL and 117000 ng/mL and 148000 ng/mL"}, {"measurement": "Average Conc. Found in plasma", "setting": "[20]; 300 mg/kg QD, 1 hr post dose", "value": 165000, "unit": "ng/mL"}, {"measurement": "Average Conc. Found in plasma", "setting": "[20]; 300 mg/kg QD, 24 hr post dose", "value": 6100, "unit": "ng/mL"}, {"measurement": "free drug concentration over the MIC", "setting": "[20]; predicted from PK in healthy mice, for over 8 h", "value": "about 2 fold"}, {"measurement": "solubility thermodynamic", "setting": "[21]", "value": 140, "unit": "µM"}, {"measurement": "fraction unbound", "setting": "[22]", "value": 0.068}]}
